Tested on: L1210
Test: Cytotoxicity against mouse L1210 cells
Format: functional, cell-based

Row | SMILES | IC50
1 | CC(C)=CCC/C(C)=C/COc1ccc2ccc(=O)oc2c1CC=C(C)C | 15.7 µM
2 | c1cc2c(cc1CC1COCC1Cc1ccc3c(c1)OCO3)OCO2 (stereo not drawn) | 72.1 µM
3 | COc1ccc2c3occc(=O)c3n(C)c2c1 [KONIAMBORINE] | 38.2 µM
